Source: PubChem BioAssay AID179 (DTP/NCI, 2004)
Activity calls are given as the source filed them.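 The calls were made as follows: active = compounds giving half or more protection of infected cells from virus-caused growth loss, again on retest; inactive = the rest.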

Tested on: CEM cells HIV-1 protection, formazan growth assay
Test: NCI AIDS Antiviral Assay
Details: for IC50: measured here: growth of uninfected CEM cells
Method in brief: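 Human CEM cells, uninfected and HIV-1-infected, exposed to five drug concentrations; growth measured by soluble formazan assay and scored as percent protection from infection, with protecting compounds retested.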

SMILES	EC50 [µM]	IC50 [µM]	outcome
CCC(C)C(N)C(=O)NC(CC(N)=O)C(=O)NC(CC(C)C)C(=O)NC(CCCCN)C(=O)NC(C)C(=O)NC(CC(C)C)C(=O)NC(C)C(=O)NC(C)C(=O)NC(CC(C)C)C(=O)NC(C)C(=O)NC(CCCCN)C(=O)NC(CCCCN)C(=O)NC(C(=O)NC(CC(C)C)C(N)=O)C(C)CC (stereo not drawn)	40.7	43.7	
Cc1cn2c(n1)Nc1sc3c(c1C2)CCCC3	> 200	30.2	
O=C(O)C(SC(=S)c1ccc(C(=S)SC(C(=O)O)c2ccccc2)cc1)c1ccccc1 (stereo not drawn)			inactive
CS/C=C\C(=O)O[C@H]1C[C@@H]2[C@@H](O)c3occ(C)c3C[C@]2(C)[C@@H](C)C1	> 200	30.2	
COc1ccc(/C(=N/NC(=O)NN)C(c2ccc(OC)cc2)C2(O)CNc3c(Cl)cc(Cl)cc32)cc1 (stereo not drawn)	> 9.77	> 9.77	
O=C(Cc1nc2ccccc2c(=O)n1-c1c(Cl)cccc1Cl)c1ccncc1	> 12.6	> 12.6	
O=C1NC(=S)N(c2ccccc2)C1=O	> 200	> 200	
COC1/C=C/OC2(C)Oc3c(C)c(O)c4c(O)c(c(/C=N/OC/C=C(\C)CCC=C(C)C)c(O)c4c3C2=O)NC(=O)C(C)=C/C=C/C(C)C(O)C(C)C(O)C(C)C(OC(C)=O)C1C (stereo not drawn)	> 200	4.47	
CC1=NN(c2ccccc2)C(=O)C12[C@H](c1ccccc1)C2(C#N)C#N (stereo partly drawn)	> 21.9	3.39	
CC1(C)SSC(C)(C)SS1	> 200	> 200	
COC(=O)C1(C(=O)OC)N=C(C)OC1C(C)C (stereo not drawn)	> 200	> 200	
CCC[N+]1=C/c2ccccc2OC(=O)/C=C\1[O-]	> 200	> 200	
COc1ccc(-c2cc(C(=O)Nc3cccc(C(F)(F)F)c3)[nH]c(=S)n2)cc1	> 162	> 162	
Nc1ccc(SCc2ccc(C(=O)O)cc2[N+](=O)[O-])cc1	> 813	339	
CCCCCC=C(c1cc(Cl)c(OC)c(C(N)=O)c1)c1cc(Cl)c(OC)c(C(N)=O)c1	1.82	15.8	
O=S(=O)(c1ccccc1)C1(Sc2ccccc2)CC(Br)[C@@H](Br)C1 (stereo partly drawn)	> 15.1	> 15.1	
Cc1cccc(C[P+](c2ccccc2)(c2ccccc2)c2ccccc2)c1	> 200	0.631	
COc1cc2c(cc1OC)C1CC(=O)C(CCCCCCC3CN4CCc5cc(OC)c(OC)cc5C4CC3=O)CN1CC2 (stereo not drawn)			inactive
CC(C)(C)[Si](C)(C)OCC1OC(n2ccc(=O)[nH]c2=O)C(O[Si](C)(C)C(C)(C)C)[C@]12O[C@@H]2CO (stereo partly drawn)	> 200	13.2	
CC1C(c2ccccc2)OC(N2CCOCC2)C(C)(C)CN1C (stereo not drawn)	> 200	> 200	
Cc1ccc(Nc2nc(C)c(C(=O)CC(=O)C(=O)Nc3ccc(Cl)cc3)s2)cc1	> 200	> 200	

SMILES	EC50 [µM]	IC50 [µM]	outcome
CC(CO)[C@H]1OC(=O)C=C2[C@@]13O[C@@H]3[C@H]1OC(=O)[C@@]3(C)[C@H]4O[C@H]4C[C@@]2(C)[C@@H]13 (stereo partly drawn)	> 2	0.776	
CC1CCCCCC(=O)c2c(O)cc(O)cc2CC(=O)O1 (stereo not drawn)	> 851	117	
CC(=O)[O-].O=S(=O)(Nc1ncccn1)c1ccc(N=Cc2ccccc2O)cc1.O=S(=O)(Nc1ncccn1)c1ccc(N=Cc2ccccc2O)cc1.[Co+2]	> 200	39.8	
C=CN1C(=O)OC[C@@H]1c1ccccc1	> 513	> 513	
CCCCCCCCCCCCC/C=C/[C@@H](OC(=O)c1ccccc1)C(CO)N=[N+]=[N-] (stereo partly drawn)			inactive
COc1ccc2c(c1)C(=O)C1NC(=O)NC(=O)C1(Br)N2 (stereo not drawn)	> 200	> 200	
C[C@]12C=CC(=O)C=C1[C@@H](F)C[C@H]1[C@@H]3CC[C@](O)(C(=O)CO)[C@@]3(C)C[C@H](O)[C@@]12F			inactive
O=C(CSc1nnc(-c2ccc(N=Cc3ccc(Cl)cc3)cc2)o1)Nc1ccccc1[N+](=O)[O-]	> 20.4	> 20.4	
CNc1ncc2nc(C)c(=O)n(C)c2n1	> 200	> 200	
Nc1nn2cc3c(nc2c1N=Nc1ccc(Cl)cc1)CCCC3			inactive
C[N+]1(CC(=O)c2ccc(O)c(O)c2)CCOCC1	> 200	> 200	
CC1(C(N)=O)OC12CCCCC2 (stereo not drawn)	> 200	> 200	
O=C(NC(=Nc1ccccc1)SCCSC(=Nc1ccccc1)NC(=O)c1cccs1)c1cccs1	> 3.63	> 3.63	
CC(C)CCN(CCC(C)C)CC(=O)Nc1ccc(S(=O)(=O)c2ccc(NC(=O)CN(CCC(C)C)CCC(C)C)cc2)cc1	> 100	1.62	
c1ccc(-c2sc(-c3ccccc3)c3c2C2CCC3C2)cc1	> 200	36.3	
C=C(CCCO)[C@@H]1CC[C@](C)(O)[C@H]1C			inactive
Cc1cc2c(C(C)C)c(O)c(O)c(C=Nc3ccccc3O)c2c(O)c1-c1c(C)cc2c(C(C)C)c(O)c(O)c(C=Nc3ccccc3O)c2c1O	> 200	3.24	
COc1nc(N)c(NC2OC(CO)C(O)C(O)C2O)c(=O)n1C (stereo not drawn)			inactive
C[C@H](COCP(=O)(O)O)n1cnc2c(N)ncnc21	> 200	> 200	
O=C(O)C12CC=CCC1(C(=O)O)CC=CC2 (stereo not drawn)	> 200	> 200	
CC(C)(C)C(=O)ON1N=NC2C3CC(OCc4ccccc4)(OCc4ccccc4)C(O3)C21 (stereo not drawn)	> 15.8	> 15.8	

SMILES	EC50 [µM]	IC50 [µM]	outcome
O=C1CCC[C@]2(CCC[C@@H](O)C2)N1	> 200	> 200	
CCN(CC)CC(C)C1NS(=O)(=O)c2ccccc21 (stereo not drawn)	> 200	> 200	
CCCN(CCC)CCc1cc(C(C)=O)n(S(=O)(=O)c2ccc(C)cc2)c1	> 589	263	
CN(C)c1ccc(C(=C2C=CC(=[N+](C)C)C=C2)c2cc(S(=O)(=O)O)cc3cc(S(=O)(=O)O)ccc23)cc1	> 100	> 100	
COc1cc(O)c2c(c1O)C(=O)c1cc(C)ncc1C2=O			inactive
N#Cc1c(N=C2CCCCC2)c(C(=O)Nc2ccccc2)n2c1CCCC2	> 50.1	> 50.1	
CCCCCCCCCCCCCCCC(=O)Nc1nc(=O)n(C2CCC(COP(=O)(O)OCC3OC(n4cc(C)c(=O)[nH]c4=O)CC3N=[N+]=[N-])O2)cc1C (stereo not drawn)	0.363	115	
O=C(C=Nc1ccccc1C(=O)[O-])c1cccs1.O=C(C=Nc1ccccc1C(=O)[O-])c1cccs1.[Co+2]			inactive
COc1ccc2nc(CC(C)C)c3c(c2c1)-c1ccccc1C3=O	> 11.2	> 11.2	
Cc1ccc(SSCC(O)C(O)CSSc2ccc(C)cc2)cc1 (stereo not drawn)			inactive
CN(C)c1cccc2c1C(=O)C=CC21CCc2ccc(N(C)C)c3c(N(C)C)ccc1c23 (stereo not drawn)	> 200	8.71	
CC1(C)C2CCC1(C)C(OC(=O)/C=C/C(=O)OC1CC3CCC1(C)C3(C)C)C2 (stereo not drawn)			inactive
CC(C)OP(=O)(OC(C)C)C(C)(C)O	> 200	> 200	
COC(=O)C(=O)C(C(=O)C(=O)Nc1ccc(OC)cc1[N+](=O)[O-])c1nc2ccc([N+](=O)[O-])cc2[nH]c1=O (stereo not drawn)	> 182	170	
CNC(=O)Nc1cc2c3c(c1)CCCN3CCC2	135	178	
Cc1cc(N=Nc2c(N)c(C)cc(N=Nc3ccc(C(N)=O)cc3)c2N)ccc1N=Nc1cc(C(=O)O)c(O)c(S(=O)(=O)O)c1	8.91	> 200	
CN1C(=O)C[N+]([O-])=C(c2ccccc2)c2cc(Cl)ccc21	> 120	> 120	
CC(=O)[O][Hg][CH2]C(O)Cn1c(=O)c2c(ncn2C)n(C)c1=O (stereo not drawn)			inactive
CCNc1ccccc1S(=O)(=O)c1ccccc1[N+](=O)[O-]	> 0.741		
N#C/C(C(=O)Nc1ccccc1)=C(/N)N1CCOCC1	> 200	> 200	
O=C(O)CC1NC(/C(=C/c2ccccc2O)NC(=O)c2ccccc2)OC1=O (stereo not drawn)			inactive

SMILES	EC50 [µM]	IC50 [µM]	outcome
Cn1c(=O)c2[nH]c(N=O)nc2n(C)c1=O	> 200	> 200	
CN(C)CCCN1C(=O)CCC(=O)Nc2ccccc2-c2ccccc21			inactive
CC1/C(=N/O)CC(c2ccccc2)N(N=O)C1c1ccccc1 (stereo not drawn)	> 200	129	
NC1=NN(c2ccccc2)C(=O)C1C(=O)C(=O)Nc1ccc(Cl)c(Cl)c1 (stereo not drawn)	> 331	234	
Cc1n[nH]c(=O)n1/N=C/c1ccncc1	> 200	102	
N#C/C(=C1/Sc2c(nc[nH]c2=O)N1c1ccccc1)c1nc2ccccc2[nH]1	> 3.8	> 3.8	
O=C1C(F)=CC(COC(c2ccccc2)(c2ccccc2)c2ccccc2)OC1n1cc(F)c(=O)[nH]c1=O (stereo not drawn)	> 2	0.479	
CC1CCCOc2ccc(cc2)C=Nc2ccc(cc2)CCc2ccc(cc2)N=Cc2ccc(cc2)OCCC1 (stereo not drawn)	> 200	> 200	
Cc1cn(CC2(CO)CCC2)c(=O)[nH]c1=O	> 200	> 200	
CSc1n[n+]2c(s1)SCCC2	> 759	58.9	
CCOC(=O)C(=CNC(=S)Nc1ccc(OCC)cc1)C(=O)OCC	> 200	112	
COc1ccc(NC(=O)CC(=O)N2N=C(N(c3ccccc3)c3ccccc3)CC2c2ccccc2)cc1 (stereo not drawn)			inactive
C=C1C(=O)OC2/C=C(\COC(C)=O)CCC(OC(C)=O)C3=CC(OC3=O)C12 (stereo not drawn)	> 36.3	7.24	
CC(CS(=O)(=O)O)NC(CO)(CO)CO (stereo not drawn)	> 200	> 200	
COc1cc(N=Nc2cc(NC(C)=O)c(N=Nc3ccc(S(=O)(=O)O)cc3)cc2S(=O)(=O)O)c(C)cc1N=Nc1ccc(NC(=O)c2ccc(N)cc2)cc1C	8.71	97.7	
Cc1ccc([N+](=O)[O-])cc1NC(=O)C(=O)C1CCC2=C(Sc3ccccc3N2)C1=O (stereo not drawn)	> 117	> 117	
O=C(N/N=C/c1ccco1)c1ccc(OCc2nc3ccccc3[nH]2)cc1	> 200	83.2	
Cc1ccc(CC2(C(=O)O)Cc3ccc(C)cc3C2)cc1 (stereo not drawn)	> 200	57.5	
CC(=O)NNc1nc(C)c(C(=O)NNC(=O)C(=O)Nc2ccc([N+](=O)[O-])cc2[N+](=O)[O-])s1	> 204	38	
